Results published in patent US10806785B2, “Immunomodulator compounds and methods of use” (Incyte Corporation, priority 2016, dated 2020).

Biological target: PD-1/PD-L1 (Homo sapiens (Human), UniProt Q9NZQ7)
Assay: PD-1/PD-L1 binding assay (HTRF)
Protocol: The assays were conducted in a standard black 384-well polystyrene plate with a final volume of 20 μL. Inhibitors were first serially diluted in DMSO and then added to the plate wells before the addition of other reaction components. The final concentration of DMSO in the assay was 1%. The assays were carried out at 25° C. in the PBS buffer (pH 7.4) with 0.05% Tween-20 and 0.1% BSA. Recombinant human PD-L1 protein (19-238) with a His-tag at the C-terminus was purchased from AcroBiosystems (PD1-H5229). Recombinant human PD-1 protein (25-167) with Fc tag at the C-terminus was also purchased from AcroBiosystems (PD1-H5257). PD-L1 and PD-1 proteins were diluted in the assay buffer and 10 μL was added to the plate well. Plates were centrifuged and proteins were preincubated with inhibitors for 40 minutes. The incubation was followed by the addition of 10 μL of HTRF detection buffer supplemented with Europium cryptate-labeled anti-human IgG (PerkinElmer-AD0212) specific for Fc and anti-His antibody conjugated to SureLight®-Allophycocyanin (APC, PerkinElmer-AD0059H). After centrifugation, the plate was incubated at 25° C. for 60 min. before reading on a PHERAstar FS plate reader (665 nm/620 nm ratio). Final concentrations in the assay were […], 10 nM PD-L1, 1 nM europium anti-human IgG and 20 nM anti-His-Allophycocyanin. IC50 determination was performed by fitting the curve of percent control activity versus the log of the inhibitor concentration using the GraphPad Prism 5.0 software.

Sequence of PD-1/PD-L1 (Q9NZQ7 19-238): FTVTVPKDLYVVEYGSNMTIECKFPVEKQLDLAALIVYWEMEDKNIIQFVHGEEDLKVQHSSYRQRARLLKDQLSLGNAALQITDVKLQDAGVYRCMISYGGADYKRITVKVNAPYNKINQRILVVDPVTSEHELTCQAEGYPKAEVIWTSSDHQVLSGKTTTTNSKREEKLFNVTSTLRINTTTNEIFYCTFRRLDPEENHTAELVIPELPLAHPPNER

Row | SMILES | IC50 [nM]
1 | Cc1c(NC(=O)c2nc3c(n2C)CCN(C[C@@H](C)O)C3)cccc1-c1cccc(NC(=O)c2nc3c(n2C)CCN(C2CCC(C)(C(=O)O)CC2)C3)c1Cl (mixture of isomers) [Compound 141, (R)-4-(2-((2-chloro-3′-(5-(2-hydroxypropyl)-1-methyl-4,5,6,7-tetrahydro-1H-imidazo[4,5-c]pyridine-2-carboxamido)-2′-methyl-[1,1′-biphenyl]-3-yl)carbamoyl)-1-methyl-1,4,6,7-tetrahydro-5H-imidazo[4,5-c]pyridin-5-yl)-1-methylcyclohcxane-1-carboxylic acid] | ≤ 10
2 | Cc1c(NC(=O)c2nc3c(n2C)CCN(C2CCOCC2)C3)cccc1-c1cccc(NC(=O)c2nc3c(n2C)CCN(C2CCC(C)(C(=O)O)CC2)C3)c1Cl (single isomer, unassigned) [142 (compound 142-1), 4-(2-((2-chloro-2′-methyl-3′-(1-methyl-5-(tetrahydro-2H-pyran-4-yl)-4,5,6,7-tetrahydro-1H-imidazo[4,5-c]pyridine-2-carboxamido)-[1,1′-biphenyl]-3-yl)carbamoyl)-1-methyl-1,4,6,7-tetrahydro-5H-imidazo[4,5-c]pyridin-5-yl)-1-methylcyclohexane-1-carboxylic acid] | ≤ 10
3 | Cc1c(NC(=O)c2nc3c(n2C)CCN(C[C@H](C)O)C3)cccc1-c1cccc(NC(=O)c2nc3c(n2C)CCN(C2CCC(C)(C(=O)O)CC2)C3)c1Cl (single isomer, unassigned) [143 (compound 143-1)] | ≤ 10
4 | Cn1c(C(=O)Nc2cccc(-c3cccc(NC(=O)c4nc5c(n4C)CCN(C4CCC(O)CC4)C5)c3Cl)c2Cl)nc2c1CCN(CC13CCC(C(=O)O)(CC1)C3)C2 (single isomer, unassigned) [183 (compound 183-1), 4-((2-(2,2′-dichloro-3′-(5-(4-hydroxycyclohexyl)-1-methyl-4,5,6,7-tetrahydro-1H-imidazo[4,5-c]pyridine-2-carboxamido)biphenyl-3-ylcarbamoyl)-1-methyl-6,7-dihydro-1H-imidazo[4,5-c]pyridin-5(4H)-yl)methyl)bicyclo[2.2.1]heptane-1-carboxylic acid] | ≤ 10
5 | CN1CCc2c(nc(C(=O)Nc3cccc(-c4cccc(NC(=O)c5nc6c(n5C)CCN(CC5CCC(C)(C(=O)O)CC5)C6)c4Cl)c3Cl)n2C)C1 (single isomer, unassigned) [Compound 82-1, 4-((2-((2,2′-dichloro-3′-(1,5-dimethyl-4,5,6,7-tetrahydro-1H-imidazo[4,5-c]pyridine-2-carboxamido)-[1,1′-biphenyl]-3-yl)carbamoyl)-1-methyl-1,4,6,7-tetrahydro-5H-imidazo[4,5-c]pyridin-5-yl)methyl)-1-methylcyclohexane-1-carboxylic acid] | ≤ 10
6 | Cc1c(NC(=O)c2nc3c(n2C)CCN(C)C3)cccc1-c1cccc(NC(=O)c2nc3c(n2C)CCN(CC2CCC(C)(C(=O)O)CC2)C3)c1Cl (single isomer, unassigned) [Compound 120-1, 4-((2-((2-chloro-3′-(1,5-dimethyl-4,5,6,7-tetrahydro-1H-imidazo[4,5-c]pyridine-2-carboxamido)-2′-methyl-[1,1′-biphenyl]-3-yl)carbamoyl)-1-methyl-1,4,6,7-tetrahydro-5H-imidazo[4,5-c]pyridin-5-yl)methyl)-1-methylcyclohexane-1-carboxylic acid] | ≤ 10
7 | Cc1c(NC(=O)c2nc3c(n2C)CCN(C2CCC(O)CC2)C3)cccc1-c1cccc(NC(=O)c2nc3c(n2C)CCN(CC[C@H]2CC[C@H](C(=O)O)CC2)C3)c1Cl (single isomer, unassigned) [Compound 134-1, Trans-4-(2-(2-(2-chloro-3′-(5-(4-hydroxycyclohexyl)-1-methyl-4,5,6,7-tetrahydro-1H-imidazo[4,5-c]pyridine-2-carboxamido)-2′-methylbiphenyl-3-ylcarbamoyl)-1-methyl-6,7-dihydro-1H-imidazo[4,5-c]pyridin-5(4H)-yl)ethyl)cyclohexane-1-carboxylic Acid] | ≤ 10
8 | Cc1c(NC(=O)c2nc3c(n2C)CCN(C2CCC(O)CC2)C3)cccc1-c1cccc(NC(=O)c2nc3c(n2C)CCN(C[C@H]2CC[C@@H](C(=O)O)CC2)C3)c1Cl (single isomer, unassigned) [Compound 138-1, cis-4-((2-((2-chloro-3′-(5-(4-hydroxycyclohexyl)-1-methyl-4,5,6,7-tetrahydro-1H-imidazo[4,5-c]pyridine-2-carboxamido)-2′-methyl-[1,1′-biphenyl]-3-yl)carbamoyl)-1-methyl-1,4,6,7-tetrahydro-5H-imidazo[4,5-c]pyridin-5-yl)methyl)cyclohexane-1-carboxylic acid] | ≤ 10
9 | Cn1c(C(=O)Nc2cccc(-c3cccc(NC(=O)c4nc5c(n4C)CCN(C4CCC(O)CC4)C5)c3Cl)c2Cl)nc2c1CCN(C[C@H]1CC[C@H](C(=O)O)CC1)C2 (stereo partly drawn) [144 (compound 144-1), trans-4-((2-((2,2′-dichloro-3′-(5-(4-hydroxycyclohexyl)-1-methyl-4,5,6,7-tetrahydro-1H-imidazo[4,5-c]pyridine-2-carboxamido)-[1,1′-biphenyl]-3-yl)carbamoyl)-1-methyl-1,4,6,7-tetrahydro-5H-imidazo[4,5-c]pyridin-5-yl)methyl)cyclohexane-1-carboxylic acid] | ≤ 10
10 | Cn1c(C(=O)Nc2cccc(-c3cccc(NC(=O)c4nc5c(n4C)CCN(C4CCC(O)CC4)C5)c3Cl)c2Cl)nc2c1CCN(C[C@H]1CC[C@@H](C(=O)O)CC1)C2 (stereo partly drawn) [145 (compound 145-1), cis-4-((2-((2,2′-dichloro-3′-(5-(4-hydroxycyclohexyl)-1-methyl-4,5,6,7-tetrahydro-1H-imidazo[4,5-c]pyridine-2-carboxamido)-[1,1′-biphenyl]-3-yl)carbamoyl)-1-methyl-1,4,6,7-tetrahydro-5H-imidazo[4,5-c]pyridin-5-yl)methyl)cyclohexane-1-carboxylic acid] | ≤ 10
11 | Cn1c(C(=O)Nc2cccc(-c3cccc(NC(=O)c4nc5c(n4C)CCN(C4CCC(O)CC4)C5)c3Cl)c2Cl)nc2c1CCN(CC[C@H]1CC[C@H](C(=O)O)CC1)C2 (stereo partly drawn) [146 (compound 146-1), trans-4-(2-(2-((2,2′-dichloro-3′-(5-(4-hydroxycyclohexyl)-1-methyl-4,5,6,7-tetrahydro-1H-imidazo[4,5-c]pyridine-2-carboxamido)-[1,1′-biphenyl]-3-yl)carbamoyl)-1-methyl-1,4,6,7-tetrahydro-5H-imidazo[4,5-c]pyridin-5-yl)ethyl)cyclohexane-1-carboxylic acid] | ≤ 10
12 | Cc1c(NC(=O)c2nc3c(n2C)CCN(C2C4CC5CC2CC(C(=O)O)(C5)C4)C3)cccc1-c1cccc(NC(=O)c2nc3c(n2C)CCN(C)C3)c1Cl (stereo not shown) [175 (compound 175-1), 4-(2-((2′-chloro-3′-(1,5-dimethyl-4,5,6,7-tetrahydro-1H-imidazo[4,5-c]pyridine-2-carboxamido)-2-methyl-[1,1′-biphenyl]-3-yl)carbamoyl)-1-methyl-1,4,6,7-tetrahydro-5H-imidazo[4,5-c]pyridin-5-yl)adamantane-1-carboxylic acid] | ≤ 10
13 | CN1CCc2c(nc(C(=O)Nc3cccc(-c4cccc(NC(=O)c5nc6c(n5C)CCN(CCC5CCC(C(=O)O)CC5)C6)c4Cl)c3Cl)n2C)C1 (stereo not shown) [Compound 77-1, 4-(2-(2-((2,2′-dichloro-3′-(1,5-dimethyl-4,5,6,7-tetrahydro-1H-imidazo[4,5-c]pyridine-2-carboxamido)-[1,1′-biphenyl]-3-yl)carbamoyl)-1-methyl-1,4,6,7-tetrahydro-5H-imidazo[4,5-c]pyridin-5-yl)ethyl)cyclohexane-1-carboxylic acid] | ≤ 10
14 | Cc1c(NC(=O)c2nc3c(n2C)CCN(C2CCCCC2)C3)cccc1-c1cccc(NC(=O)c2nc3c(n2C)CCN(C2CCC(C)(C(=O)O)CC2)C3)c1Cl (stereo not shown) [Compound 139, 4-(2-((2-chloro-3-(5-cyclohexyl-1-methyl-4,5,6,7-tetrahydro-1H-imidazo[4,5-c]pyridine-2-carboxamido)-2′-methyl-[1,1′-biphenyl]-3-yl)carbamoyl)-1-methyl-1,4,6,7-tetrahydro-5H-imidazo[4,5-c]pyridin-5-yl)-1-methylcyclohexane-1-carboxylic acid] | ≤ 10
15 | Cc1c(NC(=O)c2nc3c(n2C)CCN(C2CCC(O)CC2)C3)cccc1-c1cccc(NC(=O)c2nc3c(n2C)CCN(C2CCC(C)(C(=O)O)CC2)C3)c1Cl (stereo not shown) [Compound 140, 4-(2-((2-chloro-3′-(5-(4-hydroxycyclohexyl)-1-methyl-4,5,6,7-tetrahydro-1H-imidazo[4,5-c]pyridine-2-carboxamido)-2′-methyl-[1,1′-biphenyl]-3-yl)carbamoyl)-1-methyl-1,4,6,7-tetrahydro-5H-imidazo[4,5-c]pyridin-5-yl)-1-methylcyclohexane-1-carboxylic acid] | ≤ 10
16 | CN1CCc2c(nc(C(=O)Nc3cccc(-c4cccc(NC(=O)c5nc6c(n5C)CCN(C[C@H]5CC[C@H](C(=O)O)CC5)C6)c4C#N)c3Cl)n2C)C1 [Compound 147, trans-4-((2-((2′-chloro-2-cyano-3′-(1,5-dimethyl-4,5,6,7-tetrahydro-1H-imidazo[4,5-c]pyridine-2-carboxamido)-[1,1′-biphenyl]-3-yl)carbamoyl)-1-methyl-1,4,6,7-tetrahydro-5H-imidazo[4,5-c]pyridin-5-yl)methyl)cyclohexane-1-carboxylic acid] | ≤ 10
